Reference: ChEMBL document CHEMBL1124651, “Cytostatic trans-platinum(II) complexes” (J Med Chem, 1989)
“And” between values parts separate entries of the source, which are not always exact repeats. Equal entries are not always repeated.

Key:
P388 = assay: Anti tumor activity expressed as median survival time of treated BDF1 mice bearing P388 leukemia cells versus untreated controls; type: functional, cell-based; settings: Mus musculus
Mus musculus = assay: Maximum dose at which all tested BDF1 mice survived after 30 days of intraperitoneal dosage; type: functional
L1210 = assay: Compound was evaluated for its inhibitory dose against L1210 leukemia cell line; type: functional, cell-based; settings: Mus musculus

With Cis-[PtCl2(gamma-pic)2] complex the T/C (P388) was 105% and 119%.
Work on CISPLATIN yielded an LD0 (Mus musculus) of 30 µM/kg, an ID50 (L1210) of 2.3 µM and a T/C (P388) of 205%.
With TRANSPLATIN the LD0 (Mus musculus) was 167 µM/kg, the ID50 (L1210) was 67 µM and the T/C (P388) was 116%.
